Experimental data taken from patent US5602161A, “Tetrazolylphenyl pivalate derivatives and medicinal composition containing the same as effective component” (Wakamoto Pharmaceutical Co., Ltd., priority 1994, dated 1997).
Where a name gives a salt, the structure may show the parent alone.

Each molecule was assayed against T1, human sputum elastase (Homo sapiens, UniProt P08246) (assay: Inhibitory effect on elastase (human sputum), spectrophotometric assay with MeOSuc-Ala-Ala-Pro-Val-pNA). Conditions: S: human sputum elastase; pH 8.0, 37° C.; read-out: IC50.
T1 sequence (P08246 30-247 limits assumed): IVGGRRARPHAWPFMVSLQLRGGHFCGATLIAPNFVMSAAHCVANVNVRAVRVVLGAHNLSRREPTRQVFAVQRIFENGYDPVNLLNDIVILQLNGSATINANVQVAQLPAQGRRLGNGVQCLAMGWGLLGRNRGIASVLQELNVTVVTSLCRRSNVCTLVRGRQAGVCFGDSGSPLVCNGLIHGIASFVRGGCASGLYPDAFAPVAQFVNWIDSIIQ
Assay type: biochemical

Structure (SMILES)	IC50
CC(C)(C)C(=O)Oc1ccc(-c2nnn(Cc3ccc(C(=O)N[C@@H](Cc4ccccc4)C(=O)O)cc3)n2)cc1	58 nM
CSCCC(NC(=O)c1ccc(Cn2nnc(-c3ccc(OC(=O)C(C)(C)C)cc3)n2)cc1)C(=O)O (racemic) [Example 62, N-[4-[5-(4-Pivaloyloxyphenyl)tetrazol-2-ylmethyl]benzoyl]-DL-methionine]	79 nM
CC(C)(C)C(=O)Oc1ccc(-c2nnn[nH]2)cc1 [Example 3, 4-(1H-Tetrazol-5-yl)phenyl pivalate]	2000 nM
CN(C)c1cc(-c2nnn(Cc3ccc(C(=O)O)cc3)n2)ccc1OC(=O)C(C)(C)C [Example 8, 4-[5-(3-Dimethylamino-4-pivaloyloxyphenyl)tetrazol-2-ylmethyl]benzoic acid]	230 nM
CC(C)(C)OC(=O)Cn1nnc(-c2ccc(OC(=O)C(C)(C)C)cc2)n1 [Example 10, 4-[2-(t-Butoxycarbonylmethyl)tetrazol-5-yl]phenyl pivalate]	800 nM
CC(C)(C)C(=O)Oc1ccc(-c2nnn(Cc3ccc([N+](=O)[O-])cc3)n2)cc1 [Example 25, 4-[2-(4-Nitrobenzyl)tetrazol-5-yl]phenyl pivalate]	280 nM
CC(C)(C)C(=O)Oc1ccc(-c2nnn(Cc3cccc([N+](=O)[O-])c3)n2)cc1 [Example 26, 4-[2-(3-Nitrobenzyl)tetrazol-5-yl]phenyl pivalate]	270 nM
CC(C)(C)C(=O)Oc1ccc(-c2nnn(Cc3ccccc3[N+](=O)[O-])n2)cc1 [Example 27, 4-[2-(2-Nitrobenzyl)tetrazol-5-yl]phenyl pivalate]	90 nM
CC(C)(C)C(=O)Oc1ccc(-c2nnn(C(c3ccccc3)c3ccccc3)n2)cc1 [Example 28, 4-[2-(Diphenylmethyl)tetrazol-5-yl]phenyl pivalate]	220 nM
CC(=O)c1ccc(Cn2nnc(-c3ccc(OC(=O)C(C)(C)C)cc3)n2)cc1 [Example 29, 4-[2-(4-Acetylbenzyl)tetrazol-5-yl]phenyl pivalate]	100 nM
CC(C)(C)OC(=O)COc1ccccc1Cn1nnc(-c2ccc(OC(=O)C(C)(C)C)cc2)n1 [Example 30, t-Butyl 2-[5-(4-pivaloyloxyphenyl)tetrazol-2-ylmethyl]phenoxyacetate]	380 nM
CC(C)(C)OC(=O)COc1cccc(Cn2nnc(-c3ccc(OC(=O)C(C)(C)C)cc3)n2)c1 [Example 31, t-Butyl 3-[5-(4-pivaloyloxyphenyl)tetrazol-2-ylmethyl]phenoxyacetate]	100 nM
CC(C)(C)OC(=O)COc1ccc(Cn2nnc(-c3ccc(OC(=O)C(C)(C)C)cc3)n2)cc1 [Example 32, t-Butyl 4-[5-(4-pivaloyloxyphenyl)tetrazol-2-ylmethyl]phenoxyacetate]	380 nM
CC(C)(C)C(=O)Oc1ccc(-c2nnn(C(C)(C)C)n2)cc1 [Example 36, 4-[2-(1,1-Dimethylethyl)tetrazol-5-yl]phenyl pivalate]	800 nM
CN(C)CCn1nnc(-c2ccc(OC(=O)C(C)(C)C)cc2)n1 [Example 38, 4-[2-(2-Dimethylaminoethyl)tetrazol-5-yl]phenyl pivalate Hydrochloride]	800 nM
CN(C(=O)OC(C)(C)C)c1ccc(Cn2nnc(-c3ccc(OC(=O)C(C)(C)C)cc3)n2)cc1 [Example 39, 4-[2-[4-(N-t-Butoxycarbonyl-N-methylamino)benzyl]tetrazol-5-yl]phenyl pivalate]	80 nM
CN(C(=O)OC(C)(C)C)c1ccc(Cn2nnnc2-c2ccc(OC(=O)C(C)(C)C)cc2)cc1 [Example 40, 4-[1-[4-(N-t-Butoxycarbonyl-N-methylamino)benzyl]tetrazol-5-yl]phenyl pivalate]	250 nM
COc1ccc(COCCCCCn2nnc(-c3ccc(OC(=O)C(C)(C)C)cc3)n2)cc1 [Example 43, 4-[2-[5-(4-Methoxybenzyloxy)pentyl]tetrazol-5-yl]phenyl pivalate]	130 nM
CC(C)(C)OC(=O)NCCn1nnc(-c2ccc(OC(=O)C(C)(C)C)cc2)n1 [Example 45, 4-[2-[2-(t-Butoxycarbonylamino)ethyl]tetrazol-5-yl]phenyl pivalate]	130 nM
